The experiment relates to KCNQ channels. The experiment is described as follows: Thallium flux assay for KCNQ channel openers. The conditions noted are these: HEK-293 cells stably transfected with a KCNQ family member; for Min. conc. response: minimal active concentration: lowest concentration giving signal amplitude >= four standard deviations of negative controls; for EC50: thallium flux, 10 point concentration series. It counts as cell-based. The method, then:
Thallium Flux Assay for KCNQ channel Openers. The thallium assay is a modification of that published by Weaver and is referenced in its entirety (Weaver, C. D. WO 02/31508, 2002).
Approximately 20,000 cells/well of an HEK-293 cell line stably transfected with one of the members of the KCNQ family were plated into clear-bottom, black-walled, poly-D-lysine coated, 384 well assay plates in 20 μl/well of low chloride plating medium. Low chloride plating medium was composed of the following: sodium gluconate, 109 mM; potassium gluconate, 5.4 mM; hemi-calcium gluconate, 3.6 mM; magnesium sulfate, 0.8 mM; sodium bicarbonate, 26.2 mM; sodium phosphate monobasic, 1.2 mM; glutamine, 2 mM; glucose, 5 mM; 4-(2-hydroxyethyl)-1-piperazineethanesulfonic acid (HEPES) (pH 7.3) 10 mM, MEM vitamin solution (10× concentration of vitamins, Gibco/LifeTechnologies 11120-052) and MEM amino acid solution (1× concentration of amino acids, Gibco/LifeTechnologies 11130-051).
Following overnight incubation in a 5% CO2 incubator at 37° C., the cells in the plates were loaded with 20 μl/well of a dye loading solution containing the commercially available thallium-sensitive fluorescent dye BTC-AM, the acetomethoxy ester of BTC (see U.S. Pat. No. 5,501,980) (2 μM) and pluronic acid F-127 (Molecular Probes P 6867) (0.02% w/v) in chloride free assay buffer. Chloride free assay buffer was composed of the following: sodium gluconate, 140 mM; potassium gluconate, 2.5 mM; hemi-calcium gluconate, 6 mM; hemi-magnesium gluconate, 2 mM; glucose, 5 mM; HEPES (pH 7.3), 10 mM.
Following incubation in the dye loading solution for from 45-90 min at room temperature, the dye loading solution was removed by aspiration and replaced with 40 μl/well of chloride free assay buffer.
Prior to addition to cell plates, test compound and standard compounds were dissolved in DMSO to 3 mM concentration. Compounds were then diluted from the 3 mM stock to 100-fold over the final assay concentration in DMSO. Finally, compounds in DMSO were diluted from 100-fold over the final assay concentration to 5-fold over the final assay concentration in chloride free assay buffer.
Ten μl/well of compounds at 5-fold over the final assay concentration were then added to the cell plates. This represents a 1:5 dilution, yielding the final test concentration. The wells used for test compounds were A1-P20. Wells A21-P22 contained a standard opener and a maximally efficacious concentration (positive control). Wells A23-P24 contained chloride free assay buffer containing 1% DMSO (negative control).
Following addition of test compounds, the plates were loaded onto the Molecular Devices FLIPR. The 488 nm line of the argon laser was used to excite the BTC and the emission filter was a 540(+/−30) nm. Images were collected at 1 Hz. Ten seconds of baseline were collected and then the FLIPR was used to add 13 μl/well of a stimulus buffer composed of 7.5 mM Tl2SO4 in chloride free assay buffer. Images were collected for an additional 60 seconds.
For data analysis, the amplitude of the average of the negative controls was subtracted from all wells. The amplitudes of the test compounds were then compared to the value of four standard deviations of the negative control wells. The lowest concentration of a test compound sufficient to generate a signal amplitude greater than or equal to four standard deviations from the amplitude of the negative controls was defined as the minimal active concentration.
For generating EC50 values, compounds were serially diluted in 1:3 volume increments to produce a 10 point concentration series. EC50 values were calculated by fitting the resulting amplitudes to a single-site logistic equation. EC50 was defined as the concentration of test compound required to yield 50% of the maximal response. Maximal response (Maximal opening) was the largest signal amplitude divided by the negative control amplitude generated by any concentration of a test compound. […]

Each structure is given as a SMILES string.

With `CCN(Cc1ccncc1)Cc1cccnc1-c1nc(C(F)(F)F)c(C(=O)N[C@@H](C)c2cccc(N3CCOCC3)c2)s1` [Example 62], the Min. conc. response is 3 µM and the EC50 (usually the concentration that produces a half-maximal response) lay in the range of 0.05 to 1 µM.
For `CCN(Cc1ccncc1)Cc1cccnc1-c1nc(C(F)(F)F)c(C(=O)NC(C)c2cccc(CN3CCOCC3)c2)s1` (centres unmarked) [Example 63], in that order: 30 µM and 0.05 to 1 µM.
For `C[C@@H]1CN(c2cccc([C@H](C)NC(=O)c3sc(-c4ncccc4CN4CCOCC4)nc3C(F)(F)F)c2)C[C@H](C)O1` [Example 64, (S)-2-[3-(4-morpholinylmethyl)pyridin-2-yl]-4-(trifluoromethyl)-N-[1-[3-(2,6-dimethyl-4-morpholinyl)phenyl]ethyl]-5-thiazolecarboxamide], in that order: 10 µM and 0.05 to 1 µM.
For `CCN(Cc1cccnc1-c1nc(C(F)(F)F)c(C(=O)N[C@@H](C)c2cccc(N3C[C@@H](C)O[C@@H](C)C3)c2)s1)C(C)C` [Example 65], in that order: 10 µM and 0.05 to 1 µM.
As to `CCN(Cc1ccncc1)Cc1cccnc1-c1nc(C(F)(F)F)c(C(=O)N[C@@H](C)c2cccc(N3C[C@@H](C)O[C@@H](C)C3)c2)s1` [Example 66], the Min. conc. response stood at 3 µM and the EC50 lay in the range of 0.05 to 1 µM.
With `C[C@H](NC(=O)c1sc(-c2ncccc2CN2CCOCC2)nc1C(F)(F)F)c1cccc(-c2cccnc2)c1` [Example 67, (S)-2-[3-(4-morpholinylmethyl)pyridin-2-yl]-4-(trifluoromethyl)-N-[1-[3-(3-pyridinyl)phenyl]ethyl]-5-thiazolecarboxamide], the Min. conc. response is 30 µM and the EC50 lay within 0.05 to 1 µM.
Taken in the same sequence, the figures for `CCN(Cc1cccnc1-c1nc(C(F)(F)F)c(C(=O)N[C@@H](C)c2cccc(-c3cccnc3)c2)s1)C(C)C` [Example 68, (S)-2-[3-[ethyl(2-propyl)aminomethyl]pyridin-2-yl]-4-(trifluoromethyl)-N-[1-[3-(3-pyridinyl)phenyl]ethyl]-5-thiazolecarboxamide] were 30 µM and 1 to 20 µM.
Taken in the same sequence, the figures for `CCN(Cc1ccncc1)Cc1cccnc1-c1nc(C(F)(F)F)c(C(=O)N[C@@H](C)c2cccc(-c3cccnc3)c2)s1` [Example 69, (S)-2-[3-[(4-pyridinylmethyl)ethylaminomethyl]pyridin-2-yl]-4-(trifluoromethyl)-N-[H-[3-(3-pyridinyl)phenyl]ethyl]-5-thiazolecarboxamide] were 3 µM and 0.05 to 1 µM.
Consider `CCN(Cc1cccnc1-c1nc(C(F)(F)F)c(C(=O)NC(C)c2cccc(OC(F)(F)F)c2)s1)C(C)C` (centres unmarked) [Example 70, 2-[3-[ethyl(2-propyl)aminomethyl]pyridin-2-yl]-4-(trifluoromethyl)-N-[1-[3-(trifluoromethoxy)phenyl]ethyl]-5-thiazolecarboxamide], for which the Min. conc. response stood at 3 µM and the EC50 is 0.05 to 1 µM.
For `Cc1cccnc1-c1nc(C(F)(F)F)c(C(=O)N[C@@H](C)c2cccc(-c3cccnc3)c2)s1` [Example 73, (S)-2-(3-methylpyridin-2-yl)-4-(trifluoromethyl)-N-[1-[3-(3-pyridinyl)phenyl]ethyl]-5-thiazolecarboxamide], in that order: 0.3 µM and 0.05 to 1 µM.
The molecule `CC(NC(=O)c1sc(-c2ccccc2CN(C)C)nc1C(F)(F)F)c1cccc(OC(F)(F)F)c1` (centres unmarked) [Example 74] showed a Min. conc. response of 3 µM and an EC50 of 1 to 20 µM.
As for `COc1cccc([C@H](C)NC(=O)c2sc(-c3ccccc3CN(C)C)nc2C(F)(F)F)c1` [Example 76], the Min. conc. response amounted to 10 µM and the EC50 was 0.05 to 1 µM.
Regarding `CCN(CC)Cc1ccccc1-c1nc(C(F)(F)F)c(C(=O)NCc2cccc(F)c2)s1` [Example 79], the Min. conc. response came out at 3 µM and the EC50 is 0.05 to 1 µM.
For `CCN(CC)Cc1ccccc1-c1nc(C(F)(F)F)c(C(=O)N[C@@H](C)c2cccc(OC)c2)s1` [Example 82], in that order: 0.3 µM and 0.05 to 1 µM.
The molecule `CC(NC(=O)c1sc(-c2ccc(F)cc2)nc1C(F)(F)F)c1cccc(C(F)(F)F)c1` (centres unmarked) [Example 83] came in with a Min. conc. response of 0.3 µM.
Molecule `COc1ccccc1-c1nc(C(F)(F)F)c(C(=O)NCc2ccccn2)s1` [Example 84] had a Min. conc. response of 30 µM.
Still for that read-out and setting: for `COc1cccc(-c2nc(C(F)(F)F)c(C(=O)NCc3cccc(F)c3)s2)c1` [Example 85] the value was 30 µM; for `COc1cccc(-c2nc(C(F)(F)F)c(C(=O)NC(C)c3ccc4c(c3)CCO4)s2)c1` (centres unmarked) [Example 86], 3 µM; for `CC(NC(=O)c1sc(-c2ccc3c(c2)OCO3)nc1C(F)(F)F)c1cccc(C(F)(F)F)c1` (centres unmarked) [Example 87], 0.3 µM.
Still for that read-out and setting: to `COc1cccc(-c2nc(C(F)(F)F)c(C(=O)NCc3ccccn3)s2)c1` [Example 88] belongs 30 µM; to `COc1ccc(-c2nc(C(F)(F)F)c(C(=O)NC(C)c3cccc(C(F)(F)F)c3)s2)cc1OC` (centres unmarked) [Example 89], 30 µM.
In the case of `COc1ccc(-c2nc(C(F)(F)F)c(C(=O)NC(C)c3ccc(OC)c(OC)c3)s2)cc1OC` (centres unmarked) [Example 90], the Min. conc. response worked out at 10 µM.
`COc1ccc(-c2nc(C(F)(F)F)c(C(=O)NCc3cccc(OC(F)(F)F)c3)s2)cc1OC` [Example 91] registered a Min. conc. response of 30 µM.
Still for that read-out and setting: to `CC(NC(=O)c1sc(-c2cccc(F)c2)nc1C(F)(F)F)c1cccc(C(F)(F)F)c1` (centres unmarked) [Example 92] belongs 3 µM; to `O=C(NCc1cccc(F)c1)c1sc(-c2cccc(F)c2)nc1C(F)(F)F` [Example 93], 10 µM.
Same read-out and setting: to `CC(NC(=O)c1sc(-c2cccc(F)c2)nc1C(F)(F)F)c1cccc(OC(F)(F)F)c1` (centres unmarked) [Example 95] belongs 0.3 µM; to `COc1ccccc1-c1nc(C(F)(F)F)c(C(=O)NC(C)c2cccc(Br)c2)s1` (centres unmarked) [Example 96], 3 µM; to `CC(NC(=O)c1sc(-c2cccc(N3CCOCC3)c2)nc1C(F)(F)F)c1cccc(OC(F)(F)F)c1` (centres unmarked) [Example 97], 10 µM.
With `CC(NC(=O)c1sc(-c2cccc(N3CCOCC3)c2)nc1C(F)(F)F)c1cccc(C(F)(F)F)c1` (centres unmarked) [Example 98], the Min. conc. response was determined as 3 µM.
The same measure, in the same setting: for `CCN(CC)CCOc1ccccc1-c1nc(C(F)(F)F)c(C(=O)N[C@@H](C)c2cccc(N3CCOCC3)c2)s1` [Example 100] the value was 30 µM; for `CCN(CC)CCOc1ccccc1-c1nc(C(F)(F)F)c(C(=O)N[C@@H](C)c2cccc(OC)c2)s1` [Example 101], 3 µM.
`CC(NC(=O)c1sc(-c2ccccc2F)nc1C(F)(F)F)c1cccc(N)c1` (centres unmarked) [Example 102] returned a Min. conc. response of 0.3 µM.
On the same count and under the same terms, to `CC(NC(=O)c1sc(-c2csc3ccccc23)nc1C(F)(F)F)c1cccc(CN2CCCC2)c1` (centres unmarked) [Example 103] belongs 0.3 µM; to `CCN(CC)CCOc1ccccc1-c1nc(C(F)(F)F)c(C(=O)NC(C)c2cccc(OC(F)(F)F)c2)s1` (centres unmarked) [Example 104], 10 µM; to `CC(NC(=O)c1sc(-c2ccccc2CN(C)C)nc1C(F)(F)F)c1cccc(C(F)(F)F)c1` (centres unmarked) [Example 105], 30 µM.
`CCN(CC)Cc1ccccc1-c1nc(C(F)(F)F)c(C(=O)NC(C)c2cccc(CN3CCOCC3)c2)s1` (centres unmarked) [Example 106] had a Min. conc. response of 10 µM.
